Patent publication US8765944B2, “Compounds for the treatment of hepatitis C” (priority 2010, dated 2014)

Tested on: HCV pseudoparticles
Test: HCV pseudoparticle infection assay (luciferase reporter, Huh7 cells)
Assay type: cell-based, HCV (genotype 1b E1 and E2 envelope)
Conditions: Hepatitis C virus, genotype 1b, Huh-7, 48 h, HCV pseudoparticles (genotype 1b), luciferase activity 2 days after infection

| SMILES | EC50 [nM] |
| --- | --- |
| CCC(=O)NS(=O)(=O)c1ccc(Nc2nc(NC3(c4ccc(Cl)cc4)CC3)nc(OCC(F)(F)F)n2)cc1 [Example 8004] | 2980 |
| O=C(NS(=O)(=O)c1ccc(Nc2nc(NC3(c4ccc(Cl)cc4)CC3)nc(OCC(F)(F)F)n2)cc1)C1CC1 [Example 8006] | 2990 |
| CC(C)C(=O)NS(=O)(=O)c1ccc(Nc2nc(NC3(c4ccc(Cl)cc4)CC3)nc(OCC(F)(F)F)n2)cc1 [Example 8007] | 5400 |
| O=C(NS(=O)(=O)C1(Cc2ccccc2)CC1)c1ccc(Nc2nc(NC3(c4ccc(Cl)cc4)CC3)nc(OCC(F)(F)F)n2)cc1 [Example 8014] | 12.7 |
| CN(C)CC1(S(=O)(=O)NC(=O)c2ccc(Nc3nc(OCC(F)(F)F)nc(N4CCN(C(=O)OC(C)(C)C)CC4)n3)cc2)CC1 [Example 8028] | 17600 |
| CN(C)CC1(S(=O)(=O)NC(=O)c2ccc(Nc3nc(OCC(F)(F)F)nc(N4CCN(S(=O)(=O)c5ccccc5Cl)CC4)n3)cc2)CC1 [Example 8033] | 36100 |
| Cc1ccccc1S(=O)(=O)N1CCN(c2nc(Nc3ccc(C(=O)NS(=O)(=O)C4(CN(C)C)CC4)cc3)nc(OCC(F)(F)F)n2)CC1 [Example 8034] | 23000 |

Same assay, conditions: Hepatitis C virus, genotype 1b, Huh-7, 48 h, HCV pseudoparticles (genotype 1b), luciferase activity 2 days after infection, class

| SMILES | EC50 [nM] |
| --- | --- |
| O=C(NCC1(CN2CCCC2)CC1)c1ccc(Nc2nc(NC3(c4ccc(C(=O)NS(=O)(=O)C5CC5)cc4)CC3)nc(OCC(F)(F)F)n2)cc1 [Example 7001, N-(cyclopropylsulfonyl)-4-(1-(4-(4-((1-(pyrrolidin-1-ylmethyl)cyclopropyl)methylcarbamoyl)phenylamino)-6-(2,2,2-trifluoroethoxy)-1,3,5-triazin-2-ylamino)cyclopropyl)benzamide] | 0.5 to 100 |
| O=C(NCC1(CN2CCCC2)CC1)c1ccc(Nc2nc(NC3(c4ccc(C(=O)NS(=O)(=O)C5CCC5)cc4)CC3)nc(OCC(F)(F)F)n2)cc1 [Example 7002] | 0.5 to 100 |
| NC(=O)c1ccc(Nc2nc(N[C@]3(C(=O)NS(=O)(=O)C4CC4)C[C@H]3C3CC3)nc(OCC(F)(F)F)n2)cc1 [Example 8001] | 1000 to 5000 |
| NC(=O)c1ccc(Nc2nc(NC3(C(=O)NS(=O)(=O)C4CC4)CC3)nc(OCC(F)(F)F)n2)cc1 [Example 8002] | 1000 to 5000 |
| O=C(NS(=O)(=O)CCCN1CCCC1)c1ccc(Nc2nc(NC3(c4ccc(Cl)cc4)CC3)nc(N3CCCC3)n2)cc1 [Example 8003] | 1000 to 5000 |
| CCC(=O)NS(=O)(=O)c1ccc(Nc2nc(NC3(c4ccc(Cl)cc4)CC3)nc(OCC(F)(F)F)n2)cc1 [Example 8004] | 1000 to 5000 |
| O=C(NS(=O)(=O)c1ccc(Nc2nc(NC3(c4ccc(Cl)cc4)CC3)nc(OCC(F)(F)F)n2)cc1)c1ccccc1 [Example 8005] | 1000 to 5000 |
| O=C(NS(=O)(=O)c1ccc(Nc2nc(NC3(c4ccc(Cl)cc4)CC3)nc(OCC(F)(F)F)n2)cc1)C1CC1 [Example 8006] | 1000 to 5000 |
| CC(C)C(=O)NS(=O)(=O)c1ccc(Nc2nc(NC3(c4ccc(Cl)cc4)CC3)nc(OCC(F)(F)F)n2)cc1 [Example 8007] | 1000 to 5000 |
| COCC1(S(=O)(=O)N(C)C(=O)c2ccc(N(C)c3nc(NC4(c5ccc(Cl)cc5)CC4)nc(OC)n3)cc2)CC1 [Example 8008] | 1000 to 5000 |
| COCC1(S(=O)(=O)N(C)C(=O)c2ccc(Nc3nc(OC)nc(N(C)C4(c5ccc(Cl)cc5)CC4)n3)cc2)CC1 [Example 8009] | 1000 to 5000 |
| COCC1(S(=O)(=O)NC(=O)c2ccc(N(C)c3nc(OCC(F)(F)F)nc(N(C)C4(c5ccc(Cl)cc5)CC4)n3)cc2)CC1 [Example 8010] | 1000 to 5000 |
| O=C(NS(=O)(=O)c1ccccc1)c1ccc(Nc2nc(NC3(c4ccc(Cl)cc4)CC3)nc(OCC(F)(F)F)n2)cc1 [Example 8011] | 0.5 to 100 |
| Cc1ccccc1S(=O)(=O)NC(=O)c1ccc(Nc2nc(NC3(c4ccc(Cl)cc4)CC3)nc(OCC(F)(F)F)n2)cc1 [Example 8012] | 0.5 to 100 |
| O=C(NS(=O)(=O)c1ccc(F)cc1)c1ccc(Nc2nc(NC3(c4ccc(Cl)cc4)CC3)nc(OCC(F)(F)F)n2)cc1 [Example 8013] | 0.5 to 100 |
| O=C(NS(=O)(=O)C1(Cc2ccccc2)CC1)c1ccc(Nc2nc(NC3(c4ccc(Cl)cc4)CC3)nc(OCC(F)(F)F)n2)cc1 [Example 8014] | 0.5 to 100 |
| O=C(NS(=O)(=O)C1(C(=O)Nc2ccccc2)CC1)c1ccc(Nc2nc(NC3(c4ccc(Cl)cc4)CC3)nc(OCC(F)(F)F)n2)cc1 [Example 8015] | 0.5 to 100 |
| O=C(NS(=O)(=O)C1(Cc2ccccc2F)CC1)c1ccc(Nc2nc(NC3(c4ccc(Cl)cc4)CC3)nc(OCC(F)(F)F)n2)cc1 [Example 8016] | 0.5 to 100 |
| O=C(NS(=O)(=O)C1CCCC1)c1ccc(Nc2nc(NC3(c4ccc(Cl)cc4)CC3)nc(OCC(F)(F)F)n2)cc1 [Example 8017] | 0.5 to 100 |
| Cn1cnc(C[C@H](NC(=O)c2ccc(Nc3nc(NC4(c5ccc(Cl)cc5)CC4)nc(OCC(F)(F)F)n3)cc2)C(=O)NS(=O)(=O)C2CC2)c1 [Example 8018] | 0.5 to 100 |
| Cn1cnc(C[C@H](NC(=O)c2ccc(Nc3nc(NC4(c5ccc(Cl)cc5)CC4)nc(OCC(F)(F)F)n3)cc2)C(=O)N[C@]2(C(=O)NS(=O)(=O)C3CC3)C[C@H]2C2CC2)c1 [Example 8019] | 0.5 to 100 |

| SMILES | EC50 [nM] |
| --- | --- |
| Cn1cnc(C[C@H](NC(=O)c2ccc(Nc3nc(NC4(c5ccc(Cl)cc5)CC4)nc(OCC(F)(F)F)n3)cc2)C(=O)N[C@]2(C(=O)NS(=O)(=O)C3CCC3)C[C@H]2C2CC2)c1 [Example 8020] | 0.5 to 100 |
| Cn1cnc(C[C@H](NC(=O)c2ccc(Nc3nc(NC4(c5ccc(Cl)cc5)CC4)nc(OCC(F)(F)F)n3)cc2)C(=O)N[C@]2(C(=O)NS(=O)(=O)C(C)(C)C)C[C@H]2C2CC2)c1 [Example 8021] | 0.5 to 100 |
| CN(C)CC1(S(=O)(=O)NC(=O)c2ccc(Nc3nc(OCC(F)(F)F)nc(N4CCN(S(C)(=O)=O)CC4)n3)cc2)CC1 [Example 8022] | 1000 to 5000 |
| CCS(=O)(=O)N1CCN(c2nc(Nc3ccc(C(=O)NS(=O)(=O)C4(CN(C)C)CC4)cc3)nc(OCC(F)(F)F)n2)CC1 [Example 8023] | 1000 to 5000 |
| CC(=O)N1CCN(c2nc(Nc3ccc(C(=O)NS(=O)(=O)C4(CN(C)C)CC4)cc3)nc(OCC(F)(F)F)n2)CC1 [Example 8024] | 1000 to 5000 |
| CN(C)CC1(S(=O)(=O)NC(=O)c2ccc(Nc3nc(OCC(F)(F)F)nc(N4CCN(S(=O)(=O)C5CC5)CC4)n3)cc2)CC1 [Example 8025] | 1000 to 5000 |
| CC(C)S(=O)(=O)N1CCN(c2nc(Nc3ccc(C(=O)NS(=O)(=O)C4(CN(C)C)CC4)cc3)nc(OCC(F)(F)F)n2)CC1 [Example 8026] | 1000 to 5000 |
| Cc1ccc(C(=O)N2CCN(c3nc(Nc4ccc(C(=O)NS(=O)(=O)C5(CN(C)C)CC5)cc4)nc(OCC(F)(F)F)n3)CC2)cc1 [Example 8027] | 1000 to 5000 |
| CN(C)CC1(S(=O)(=O)NC(=O)c2ccc(Nc3nc(OCC(F)(F)F)nc(N4CCN(C(=O)OC(C)(C)C)CC4)n3)cc2)CC1 [Example 8028] | 1000 to 5000 |
| CN(C)CC1(S(=O)(=O)NC(=O)c2ccc(Nc3nc(OCC(F)(F)F)nc(N4CCN(C(=O)c5ccccc5F)CC4)n3)cc2)CC1 [Example 8029] | 1000 to 5000 |
| CN(C)CC1(S(=O)(=O)NC(=O)c2ccc(Nc3nc(OCC(F)(F)F)nc(N4CCN(S(=O)(=O)c5ccccc5F)CC4)n3)cc2)CC1 [Example 8030] | 1000 to 5000 |
| CN(C)CC1(S(=O)(=O)NC(=O)c2ccc(Nc3nc(OCC(F)(F)F)nc(N4CCN(S(=O)(=O)c5ccccc5)CC4)n3)cc2)CC1 [Example 8031] | 1000 to 5000 |
| Cc1cccc(S(=O)(=O)N2CCN(c3nc(Nc4ccc(C(=O)NS(=O)(=O)C5(CN(C)C)CC5)cc4)nc(OCC(F)(F)F)n3)CC2)c1 [Example 8032] | 1000 to 5000 |
| CN(C)CC1(S(=O)(=O)NC(=O)c2ccc(Nc3nc(OCC(F)(F)F)nc(N4CCN(S(=O)(=O)c5ccccc5Cl)CC4)n3)cc2)CC1 [Example 8033] | 1000 to 5000 |
| Cc1ccccc1S(=O)(=O)N1CCN(c2nc(Nc3ccc(C(=O)NS(=O)(=O)C4(CN(C)C)CC4)cc3)nc(OCC(F)(F)F)n2)CC1 [Example 8034] | 1000 to 5000 |
| COc1ccc(S(=O)(=O)N2CCN(c3nc(Nc4ccc(C(=O)NS(=O)(=O)C5(CN(C)C)CC5)cc4)nc(OCC(F)(F)F)n3)CC2)cc1 [Example 8035] | 1000 to 5000 |
| CN(C)CC1(S(=O)(=O)NC(=O)c2ccc(Nc3nc(OCC(F)(F)F)nc(N4CCN(S(=O)(=O)c5cccc(F)c5)CC4)n3)cc2)CC1 [Example 8036] | 1000 to 5000 |
| Cc1cccc(C(=O)N2CCN(c3nc(Nc4ccc(C(=O)NS(=O)(=O)C5(CN(C)C)CC5)cc4)nc(OCC(F)(F)F)n3)CC2)c1 [Example 8038] | 1000 to 5000 |
| Cc1ccccc1C(=O)N1CCN(c2nc(Nc3ccc(C(=O)NS(=O)(=O)C4(CN(C)C)CC4)cc3)nc(OCC(F)(F)F)n2)CC1 [Example 8040] | 1000 to 5000 |
| COc1ccc(C(=O)N2CCN(c3nc(Nc4ccc(C(=O)NS(=O)(=O)C5(CN(C)C)CC5)cc4)nc(OCC(F)(F)F)n3)CC2)cc1 [Example 8041] | 1000 to 5000 |
| CC(C)(C)OC(=O)NCCS(=O)(=O)NC(=O)c1ccc(Nc2nc(NC3(c4ccc(Cl)cn4)CC3)nc(OCC(F)(F)F)n2)cc1 [Example 8042] | 0.5 to 100 |
